Results reported in patent publication US12221447B2, “Methods and compositions for drugs to treat ophthalmic diseases” (Duke University, priority 2018, dated 2025).

Assays:
[1] = target: T1, CaMKK2 auto-phosphorylation (Homo sapiens, UniProt Q96RR4); assay: HEK293 cells, ionomycin stimulation, Western blot for phospho-CaMKK2; assay type: cell-based; conditions: 10 μM; for inhibition of CaMKK2 auto-phosphorylation (densitometry): 2 hours pre-treatment, ionomycin 0.5 μg/mL 15 minutes; for inhibition of CaMKK2 auto-phosphorylation compared to STO-609: versus STO-609 10 μM
T1 construct: endogenous in cells; host or cells: HEK293
Experimental: (§1) Preliminary screening of Compounds EY301-EY305 was performed in vitro in HEK293 cells (all tested at 10 μM). In brief, HEK293 cells were cultured to sub confluence in […] complete media and 1% fetal bovine serum (FBS), incubated at 37° C. in 5% CO2. Cultured cells were then switched to serum-free media overnight prior to initiation of experiments. […] Cells were then stimulated with the calcium ionophore ionomycin (0.5 μg/mL) for 15 minutes, following which the cells were washed, harvested, and lysed for recovery of total protein using standard methods. Following standard protein gel electrophoresis, Western blot was then performed for either phospho-CaMKK2 (FIG. 4A) or phospho-AMPK (FIG. 4B) for each condition. Studies were performed in triplicate.

AMPK phosphorylation = assay: HEK293 cells, ionomycin stimulation, Western blot for phospho-AMPK; assay type: cell-based; conditions: 10 μM; for inhibition of phospho-AMPK (densitometry): 2 hours pre-treatment, ionomycin 0.5 μg/mL 15 minutes; for inhibition of phospho-AMPK compared to STO-609: versus STO-609 10 μM
Experimental: as §1

wild-type BALB/c mice = assay: NonGLP toxicology, in vivo tolerability of topically administered SMICs; conditions: topical 1.5 mg/mL twice daily for 14 days
Experimental: NonGLP toxicology studies of locally administered candidate SMICs EY1006.A001.B001 and EY1001.A002.B001 was assessed in 2-3-month old wild-type BALB/c mice. assessing local toxicity by clinical assessment and by histopathology. Both compounds were topically administered at 1.5 mg/mL twice daily for 14 days.

OGVHD mouse model = assay: Mouse model of OGVHD, proof-of-concept with topical lead SMICs (Example 11); assay type: in vivo, mice; conditions: for prevention of signs of OGVHD versus vehicle and prednisolone: 1.5 mg/mL topical daily for two weeks, p<0.05 vs vehicle or prednisolone
Experimental: Preclinical proof-of-concept studies in a mouse model of OGVHD were performed to assess the clinical efficacy of topical administration of the two most promising candidate SMICs identified in Examples 6 and 7, EY1006.A001.B001 and EY1001.A002.B001. […] Briefly, the OGVHD mouse model was initiated by isolation of bone marrow and splenic T cells from 2-3-month old mice C57BL/6J donor mice, and transplantation of isolated bone marrow and T cells to recipient 2-3-month old BALB/c mice, following ablation of recipient bone marrow. Recipient BALB/c mice were then allowed to convalesce for approximately 14 days before initiation of further experimental procedures.
OGVHD clinical findings include lid margin edema, lid crusting, tear film disruption, conjunctival chemosis, and keratopathy. These findings were clinically graded following one week and two weeks of treatment using a quantitative scoring system adapted from previously published studies (33, 34). […] By contrast, vehicle control-treated eyes had lid margin swelling and scarring with lash and periocular fur loss, eyelid crusting, chemosis, abnormal tear film, and keratopathy. […] For this scoring system and experiment Mild disease was score 0-5, moderate disease was score 6-10 and severe disease was score >10.

experimental OGVHD = test system: experimental OGVHD
From the text: Ocular graft versus host disease (OGVHD), a disease in which T cells and macrophages are known to play key pathogenic roles, represents a model ocular inflammatory disease since A) it is known to share overlapping pathologic and clinical features with other, more common ocular inflammatory diseases (i.e. aqueous tear deficiency, meibomian gland dysfunction, uveitic disease, others); and B) the at-risk population is well defined since it occurs in individuals undergoing allogeneic bone marrow transplant for hematologic malignancies, autoimmune diseases, and other disorders. As such, experimental models of OGVHD represent attractive systems in which to study the therapeutic potential of targeting and inhibiting CaMKK2 for ophthalmic diseases. […] In brief, 2-3-month old mice of C57BL/6 and BALB/c strains are used for this model. C57BL/6 mice are sacrificed, following which RPMI-1640 medium is flushed in the diaphyseal channel of both recovered tibias and femurs. […]
Following BMT+T cell transfer, recipient BALB/c mice were allowed to convalesce for 14 days prior to initiation of experimental procedures. […] At the conclusion of the treatment period, eyes were then graded (in masked fashion) for signs of OGVHD and scored according to a modified clinical grading system (33, 34). […]

[2] = with sonication; cited from earlier work
[3] = in vivo; cited from earlier work
[4] = target: T2, aryl hydrocarbon receptors (Homo sapiens, UniProt P35869); conditions: suspected off-target effect; cited from earlier work
T2 sequence (P35869 11-848): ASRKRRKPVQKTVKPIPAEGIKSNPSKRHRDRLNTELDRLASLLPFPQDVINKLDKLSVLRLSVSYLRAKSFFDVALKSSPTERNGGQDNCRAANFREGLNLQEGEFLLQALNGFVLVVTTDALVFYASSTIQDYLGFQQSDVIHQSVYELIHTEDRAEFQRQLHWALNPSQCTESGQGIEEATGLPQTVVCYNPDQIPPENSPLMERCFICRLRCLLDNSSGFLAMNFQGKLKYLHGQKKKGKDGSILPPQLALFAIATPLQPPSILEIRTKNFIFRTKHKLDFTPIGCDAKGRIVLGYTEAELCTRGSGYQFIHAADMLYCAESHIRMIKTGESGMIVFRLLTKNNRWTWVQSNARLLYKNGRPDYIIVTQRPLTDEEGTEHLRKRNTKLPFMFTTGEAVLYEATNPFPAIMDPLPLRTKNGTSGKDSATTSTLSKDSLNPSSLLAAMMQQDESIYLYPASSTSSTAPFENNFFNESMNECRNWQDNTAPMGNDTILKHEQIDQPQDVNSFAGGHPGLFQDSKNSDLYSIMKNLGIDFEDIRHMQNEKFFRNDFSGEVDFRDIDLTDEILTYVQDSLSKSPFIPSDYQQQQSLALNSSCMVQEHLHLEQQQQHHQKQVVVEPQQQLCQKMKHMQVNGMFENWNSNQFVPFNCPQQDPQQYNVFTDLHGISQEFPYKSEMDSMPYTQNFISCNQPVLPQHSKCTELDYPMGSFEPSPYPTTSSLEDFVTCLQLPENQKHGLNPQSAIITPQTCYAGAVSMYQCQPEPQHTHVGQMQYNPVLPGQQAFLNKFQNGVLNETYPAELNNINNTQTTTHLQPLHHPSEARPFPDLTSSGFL

T1 sequence (Q96RR4 whole entry): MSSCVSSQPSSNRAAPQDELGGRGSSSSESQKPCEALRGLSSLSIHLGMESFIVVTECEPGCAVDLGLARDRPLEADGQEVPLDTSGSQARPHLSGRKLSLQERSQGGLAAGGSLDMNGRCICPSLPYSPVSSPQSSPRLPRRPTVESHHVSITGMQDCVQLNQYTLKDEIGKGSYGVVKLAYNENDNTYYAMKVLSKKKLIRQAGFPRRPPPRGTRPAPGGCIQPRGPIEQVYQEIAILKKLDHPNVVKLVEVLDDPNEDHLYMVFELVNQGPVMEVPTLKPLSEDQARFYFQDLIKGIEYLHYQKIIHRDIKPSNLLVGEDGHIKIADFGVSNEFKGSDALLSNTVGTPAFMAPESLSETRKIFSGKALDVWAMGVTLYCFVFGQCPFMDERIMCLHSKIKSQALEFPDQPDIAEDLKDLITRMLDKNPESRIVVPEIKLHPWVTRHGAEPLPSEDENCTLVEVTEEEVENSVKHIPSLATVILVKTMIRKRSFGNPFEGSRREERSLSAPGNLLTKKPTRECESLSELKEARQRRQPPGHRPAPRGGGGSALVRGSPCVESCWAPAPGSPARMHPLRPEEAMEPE

Row | inhibition of CaMKK2 auto-phosphorylation (densitometry) [1] | inhibition of CaMKK2 auto-phosphorylation compared to STO-609 [1] | Structure (SMILES) | inhibition of phospho-AMPK (densitometry) (AMPK phosphorylation) | inhibition of phospho-AMPK compared to STO-609 (AMPK phosphorylation) | prevention of signs of OGVHD versus vehicle and prednisolone (OGVHD mouse model) | further results
1 | robust inhibition | more effective as compared to STO-609 | O=C(O)c1ccc2c(c1)[nH]c(=O)n1c3ccccc3nc21 [Compound 1] |  |  |  | 
2 | robust inhibition | more effective as compared to STO-609 | CCn1c(=O)n2c3ccccc3nc2c2ccc(C(=O)O)cc21 [Compound 4] | partial inhibition | comparable to STO-609 |  | 

More lines, now with the values behind:

Row | Structure (SMILES) | inhibition of CaMKK2 auto-phosphorylation (densitometry) [1] | inhibition of CaMKK2 auto-phosphorylation compared to STO-609 [1] | inhibition of phospho-AMPK (densitometry) (AMPK phosphorylation) | inhibition of phospho-AMPK compared to STO-609 (AMPK phosphorylation) | prevention of signs of OGVHD versus vehicle and prednisolone (OGVHD mouse model) | further results
3 | Cn1c(=O)n2c3ccccc3nc2c2ccc(C(=O)O)cc21 [Compound 3] | robust inhibition |  | partial inhibition | comparable to STO-609 |  | 
4 | CC(C)Cn1c(=O)n2c3ccccc3nc2c2ccc(C(=O)O)cc21 [Compound 5] | robust inhibition |  | partial inhibition | comparable to STO-609 |  | 
5 | O=C(O)c1ccc2c(c1)n(CCF)c(=O)n1c3ccccc3nc21 [Compound 7] |  |  |  |  | superior to vehicle and prednisolone | systemic toxicity (wild-type BALB/c mice): no evidence of failure to thrive or mortality; severity of clinical OGVHD findings (OGVHD mouse model; 1.5 mg/mL topical daily, from day 14 post-BMT for two weeks, n=5): reduced severity of clinical OGVHD findings with efficacy similar to STO-609
6 | O=C(O)c1ccc2c3c1cccc3c(=O)n1c3ccccc3nc21 [STO-609, 7-oxo-7H-benzimidazo[2,1-a]benz[de]isoquinoline-3-carboxylic acid] |  |  |  |  | superior to vehicle and prednisolone | severity of OGVHD, median score (experimental OGVHD; STO-609 1.5 mg/mL local ocular, daily for 2 weeks from day 14 post-BMT, vehicle median score 17): 5; reduction in OGVHD score (experimental OGVHD; stated as demonstrated and established for STO-609): 50%; maximum concentration in DMSO [2]: 10 mM; oral bioavailability [3]: poor oral bioavailability; off-target effect on aryl hydrocarbon receptors [4]: activation of aryl hydrocarbon receptors
